Where a SMILES comes first, the peptide text is derived from it. Bridges are numbered along the chain shown (N, C = ends).
How the values were obtained:
[1] = test system: BD1 domains (BRD2-BD1, BRD3-BD1, BRD4-BD1); assay: SPR binding, stated for the BD1 domains together; design: species or system human
Experimental: We next assessed the ability of each of the three lead peptides to bind BRD3-BD1. […] To assess selectivity for other BET BDs, we used SPR to determine the binding affinity of each peptide toward the remaining BDs from BRD2, BRD3, and BRD4 (Fig. 1B). […]
Peptides were synthesised as C-terminal amides using standard fluorenylmethyloxycarbonyl (Fmoc)-strategy solid-phase chemistry using a Syro I automated synthesiser (Biotage) and NovaPEG Rink Amide resin (Novabiochem). Couplings were performed with HBTU/HOBt (1:1) and 6 equivalents of each amino acid. Double couplings were performed for arginine residues.
Following the final amino acid coupling reaction, the Fmoc group was removed and resin incubated with N-(chloroacetoxy)succinimide (0.2 M in DMF, 1 h, RT). Resin was washed with DMF (5 times) and DCM (5 times) and dried in vacuo.
Linear peptides were cleaved from the resin by incubation (3 h, RT) with a trifluoroacetic acid (TFA) cleavage cocktail (TFA/2,2’-(ethylenedioxy)diethanethiol/triisopropyl silane/H2O (92.5:2.5:2.5:2.5)) before filtration, concentration in vacuo and precipitation with ice-cold diethyl ether. Crude peptides were washed with diethyl ether (5 times), dried and resuspended in DMSO. The pH was raised to >8 using triethylamine to allow cyclisation. Following incubation (1 h, RT), peptides were re-acidified with TFA for purification.
Crude peptides were purified by reverse-phase high-performance liquid chromatography using a Chromolith Prep column (Merck) on a Prominence LC-20AP system (Shimadzu) (Solvent A: 0.1% TFA in H2O, Solvent B: 0.1% TFA in acetonitrile) to >95% purity as determined by mass spectrometry (Fig. S17). Purified peptides were reconstituted in DMSO and concentrations determined from their absorbance at 280 nm in 5% DMSO using predicted extinction coefficients.
Surface plasmon resonance (SPR)
Measurements were conducted on a T200 or S200 (GE Healthcare) and data analysed using the Biacore Insight Evaluation Software. Experiments were performed at 4 °C in single cycle kinetics mode. Biotinylated BET bromodomains were immobilised on a CAP chip (GE Healthcare) with a […]
pH 7.5 was used as the running buffer. […]

PBRM1(2) = target: T1, PBRM1(2) (Homo sapiens, UniProt Q86U86); assay: BROMOscan competition binding assay (BromoMAX, Eurofins DiscoverX); conditions: for Percent Control PBRM1(2): compound concentration 1000 nM, lower percentage control = stronger affinity
T1 construct: PBRM1(2); purchased Eurofins DiscoverX (BROMOscan, BromoMAX)
T1 sequence (Q86U86 178-291 limits assumed): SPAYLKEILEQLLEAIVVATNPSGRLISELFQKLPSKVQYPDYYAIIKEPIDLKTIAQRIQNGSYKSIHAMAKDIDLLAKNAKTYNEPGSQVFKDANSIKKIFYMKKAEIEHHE

SMARCA4 = SMARCA4 (Homo sapiens, UniProt P51532); conditions: compound concentration 1000 nM; lower percentage control = stronger affinity
PBRM1(5) = target: T2, PBRM1(5) (Homo sapiens, UniProt Q86U86); assay: BROMOscan competition binding assay (BromoMAX, Eurofins DiscoverX); conditions: for Percent Control PBRM1(5): compound concentration 1000 nM, lower percentage control = stronger affinity
T2 construct: PBRM1(5); purchased Eurofins DiscoverX (BROMOscan, BromoMAX)
T2 sequence (Q86U86 645-766 limits assumed): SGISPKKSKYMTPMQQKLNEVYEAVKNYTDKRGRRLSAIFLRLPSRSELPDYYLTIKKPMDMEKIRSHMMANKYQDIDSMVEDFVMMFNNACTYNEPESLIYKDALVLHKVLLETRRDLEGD

BRD2-BD2 = target: T3, BRD2-BD2 (Homo sapiens, UniProt P25440); assay: 15N-HSQC NMR titration, CSPs fitted to 1:1 binding model; conditions: 15N-HSQC titration, simple 1:1 binding model; read-out: binding affinity for BRD2-BD2 from CSP data
T3 construct: human BRD2 (BD1: 65-194; BD2: 347-455); Avi tag (biotinylated); made in house; host or cells: E. coli BL21(DE3)
T3 sequence (P25440 347-455): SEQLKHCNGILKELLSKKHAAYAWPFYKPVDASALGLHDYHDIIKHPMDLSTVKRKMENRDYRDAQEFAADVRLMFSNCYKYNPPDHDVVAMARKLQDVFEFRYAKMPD
Description: (G) Overlaid section of 15N-HSQC spectra of BRD2-BD2 alone (red) or in the presence of one (yellow), two (blue), or three (green) molar equivalents of Signals that undergo the greatest CSPs in the titration are labelled in the protein alone spectrum. Binding curves were derived by tracking the combined 15N/1H chemical shift perturbations of the signals undergoing the greatest CSPs. The data were fitted to a simple 1:1 Langmuir binding isotherm using Graphpad.

[2] = test system: other BD families (non-BET BDs); assay: BROMOscan competition binding assay, stated for the non-BET bromodomains together; design: species or system human; conditions: peptide concentration 1 μM
Description: Again, remarkable specificity was observed.

EP300 = target: T4, EP300 (Homo sapiens, UniProt Q09472); assay: BROMOscan competition binding assay (BromoMAX, Eurofins DiscoverX); conditions: for Percent Control EP300: compound concentration 1000 nM, lower percentage control = stronger affinity
T4 construct: purchased Eurofins DiscoverX (BROMOscan, BromoMAX)
T4 sequence (Q09472 whole entry): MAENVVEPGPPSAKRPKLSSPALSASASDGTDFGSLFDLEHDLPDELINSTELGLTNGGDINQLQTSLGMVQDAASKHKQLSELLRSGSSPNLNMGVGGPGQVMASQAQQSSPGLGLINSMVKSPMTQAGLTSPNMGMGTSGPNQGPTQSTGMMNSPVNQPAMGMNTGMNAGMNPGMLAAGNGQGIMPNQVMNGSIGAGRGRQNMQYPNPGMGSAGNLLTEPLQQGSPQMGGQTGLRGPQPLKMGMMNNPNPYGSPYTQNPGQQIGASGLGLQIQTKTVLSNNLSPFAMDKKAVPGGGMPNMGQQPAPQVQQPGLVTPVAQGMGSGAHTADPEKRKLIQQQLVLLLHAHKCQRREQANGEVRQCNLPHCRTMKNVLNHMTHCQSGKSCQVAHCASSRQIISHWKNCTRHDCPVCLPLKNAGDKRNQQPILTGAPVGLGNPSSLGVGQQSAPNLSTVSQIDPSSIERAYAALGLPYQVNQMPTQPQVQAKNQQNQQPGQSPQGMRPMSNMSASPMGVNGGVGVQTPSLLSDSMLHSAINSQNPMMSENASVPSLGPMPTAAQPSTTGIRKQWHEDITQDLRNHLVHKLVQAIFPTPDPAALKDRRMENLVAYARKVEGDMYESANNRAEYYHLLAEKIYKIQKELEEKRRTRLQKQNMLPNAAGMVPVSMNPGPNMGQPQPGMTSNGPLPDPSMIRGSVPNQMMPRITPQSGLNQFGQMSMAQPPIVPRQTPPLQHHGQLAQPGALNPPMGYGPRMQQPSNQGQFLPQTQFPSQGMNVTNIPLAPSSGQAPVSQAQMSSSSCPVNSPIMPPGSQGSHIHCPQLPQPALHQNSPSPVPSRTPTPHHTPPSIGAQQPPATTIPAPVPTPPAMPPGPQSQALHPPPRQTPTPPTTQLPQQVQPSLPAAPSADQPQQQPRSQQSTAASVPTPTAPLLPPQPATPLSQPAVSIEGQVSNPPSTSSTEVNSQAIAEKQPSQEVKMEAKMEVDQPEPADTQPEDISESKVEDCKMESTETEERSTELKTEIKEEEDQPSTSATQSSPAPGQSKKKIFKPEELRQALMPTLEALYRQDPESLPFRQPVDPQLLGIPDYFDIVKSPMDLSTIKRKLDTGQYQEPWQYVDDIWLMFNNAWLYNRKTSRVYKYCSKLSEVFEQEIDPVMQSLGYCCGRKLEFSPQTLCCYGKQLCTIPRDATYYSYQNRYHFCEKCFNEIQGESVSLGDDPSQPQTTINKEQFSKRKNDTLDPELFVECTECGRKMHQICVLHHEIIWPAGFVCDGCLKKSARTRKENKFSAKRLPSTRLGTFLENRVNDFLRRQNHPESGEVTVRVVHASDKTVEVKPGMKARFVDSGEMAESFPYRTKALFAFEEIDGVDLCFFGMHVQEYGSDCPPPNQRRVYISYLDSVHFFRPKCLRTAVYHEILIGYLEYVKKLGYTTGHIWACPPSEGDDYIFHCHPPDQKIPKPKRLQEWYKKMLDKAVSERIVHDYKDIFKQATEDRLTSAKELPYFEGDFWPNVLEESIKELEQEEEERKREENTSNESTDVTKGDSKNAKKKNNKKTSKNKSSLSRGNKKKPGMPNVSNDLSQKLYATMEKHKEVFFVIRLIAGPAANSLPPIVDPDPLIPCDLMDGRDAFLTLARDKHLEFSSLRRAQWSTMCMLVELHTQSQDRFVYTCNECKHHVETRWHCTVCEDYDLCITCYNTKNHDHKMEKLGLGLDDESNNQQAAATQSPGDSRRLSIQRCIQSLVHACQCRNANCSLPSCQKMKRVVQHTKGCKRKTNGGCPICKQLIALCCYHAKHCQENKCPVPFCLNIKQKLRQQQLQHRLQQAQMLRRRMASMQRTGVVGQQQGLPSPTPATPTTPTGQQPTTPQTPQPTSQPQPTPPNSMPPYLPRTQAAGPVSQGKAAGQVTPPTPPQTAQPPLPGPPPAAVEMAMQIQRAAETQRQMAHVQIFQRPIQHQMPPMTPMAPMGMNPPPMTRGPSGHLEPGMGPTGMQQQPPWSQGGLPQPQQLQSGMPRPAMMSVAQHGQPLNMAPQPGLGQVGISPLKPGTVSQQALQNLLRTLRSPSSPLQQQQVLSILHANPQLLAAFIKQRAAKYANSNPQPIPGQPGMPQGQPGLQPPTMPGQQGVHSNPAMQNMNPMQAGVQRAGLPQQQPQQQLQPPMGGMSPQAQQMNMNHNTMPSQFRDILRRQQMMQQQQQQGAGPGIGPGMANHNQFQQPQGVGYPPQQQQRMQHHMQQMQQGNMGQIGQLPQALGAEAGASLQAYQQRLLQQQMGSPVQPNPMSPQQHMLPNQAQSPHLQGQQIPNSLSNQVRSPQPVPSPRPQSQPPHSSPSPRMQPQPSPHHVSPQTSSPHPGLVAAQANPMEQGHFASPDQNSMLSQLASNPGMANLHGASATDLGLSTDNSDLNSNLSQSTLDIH

BAZ2A = target: T5, BAZ2A (Homo sapiens, UniProt Q9UIF9); assay: as above; conditions: for Percent Control BAZ2A: compound concentration 1000 nM, lower percentage control = stronger affinity
T5 construct: purchased Eurofins DiscoverX (BROMOscan, BromoMAX)
T5 sequence (Q9UIF9 whole entry): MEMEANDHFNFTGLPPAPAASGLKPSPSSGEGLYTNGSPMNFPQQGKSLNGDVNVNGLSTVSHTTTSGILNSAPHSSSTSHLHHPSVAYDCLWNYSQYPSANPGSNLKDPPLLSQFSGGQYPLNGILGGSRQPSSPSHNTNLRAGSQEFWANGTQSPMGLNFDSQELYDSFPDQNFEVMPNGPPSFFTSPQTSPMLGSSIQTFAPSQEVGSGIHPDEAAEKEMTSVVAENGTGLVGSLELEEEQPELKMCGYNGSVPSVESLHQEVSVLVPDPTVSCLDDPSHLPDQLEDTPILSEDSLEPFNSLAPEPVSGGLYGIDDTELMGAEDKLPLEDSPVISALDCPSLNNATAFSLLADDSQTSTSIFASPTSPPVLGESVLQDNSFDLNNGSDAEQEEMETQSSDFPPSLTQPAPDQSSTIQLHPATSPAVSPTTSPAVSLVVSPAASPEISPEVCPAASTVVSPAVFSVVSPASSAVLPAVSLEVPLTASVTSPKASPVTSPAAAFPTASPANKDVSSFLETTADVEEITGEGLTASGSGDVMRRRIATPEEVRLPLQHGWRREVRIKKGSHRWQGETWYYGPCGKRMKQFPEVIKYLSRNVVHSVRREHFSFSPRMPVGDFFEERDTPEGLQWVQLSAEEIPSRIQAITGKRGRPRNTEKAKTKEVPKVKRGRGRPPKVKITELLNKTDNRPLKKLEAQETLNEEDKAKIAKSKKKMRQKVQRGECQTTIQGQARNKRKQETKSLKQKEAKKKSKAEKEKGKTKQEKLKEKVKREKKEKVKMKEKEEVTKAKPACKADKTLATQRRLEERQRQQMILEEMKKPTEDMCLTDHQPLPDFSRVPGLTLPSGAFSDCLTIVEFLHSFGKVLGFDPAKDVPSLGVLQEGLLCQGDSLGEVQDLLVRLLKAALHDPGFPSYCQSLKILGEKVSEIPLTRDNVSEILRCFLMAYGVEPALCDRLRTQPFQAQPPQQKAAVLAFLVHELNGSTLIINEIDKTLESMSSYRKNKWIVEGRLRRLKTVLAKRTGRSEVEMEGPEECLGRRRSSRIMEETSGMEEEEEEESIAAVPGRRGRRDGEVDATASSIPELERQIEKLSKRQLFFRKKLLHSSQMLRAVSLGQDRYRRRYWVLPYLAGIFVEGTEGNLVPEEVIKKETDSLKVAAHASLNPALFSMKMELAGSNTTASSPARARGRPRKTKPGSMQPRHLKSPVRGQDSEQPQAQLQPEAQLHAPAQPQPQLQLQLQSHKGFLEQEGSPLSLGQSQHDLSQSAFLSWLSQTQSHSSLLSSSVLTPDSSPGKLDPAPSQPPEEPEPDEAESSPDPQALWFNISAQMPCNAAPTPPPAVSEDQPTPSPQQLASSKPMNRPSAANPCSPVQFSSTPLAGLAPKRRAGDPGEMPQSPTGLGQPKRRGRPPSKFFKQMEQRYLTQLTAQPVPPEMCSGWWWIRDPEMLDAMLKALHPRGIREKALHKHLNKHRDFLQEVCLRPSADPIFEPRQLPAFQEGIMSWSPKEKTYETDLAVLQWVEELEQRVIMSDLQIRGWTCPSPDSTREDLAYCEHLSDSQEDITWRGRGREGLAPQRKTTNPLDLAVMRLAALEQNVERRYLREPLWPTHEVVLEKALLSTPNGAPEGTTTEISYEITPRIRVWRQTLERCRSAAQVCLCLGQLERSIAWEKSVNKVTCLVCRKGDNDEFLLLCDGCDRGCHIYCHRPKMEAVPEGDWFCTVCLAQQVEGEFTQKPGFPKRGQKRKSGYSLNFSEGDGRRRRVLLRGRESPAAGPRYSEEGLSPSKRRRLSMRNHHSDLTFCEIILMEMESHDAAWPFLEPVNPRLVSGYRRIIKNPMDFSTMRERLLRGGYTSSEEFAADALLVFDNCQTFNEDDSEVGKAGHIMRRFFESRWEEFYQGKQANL

BRD3(2) = target: T6, BRD3(2) (Homo sapiens, UniProt Q15059); assay: as above; conditions: for Percent Control BRD3(2): compound concentration 1000 nM, lower percentage control = stronger affinity
T6 construct: BRD3(2); purchased Eurofins DiscoverX (BROMOscan, BromoMAX)
T6 sequence (Q15059 306-416 limits assumed): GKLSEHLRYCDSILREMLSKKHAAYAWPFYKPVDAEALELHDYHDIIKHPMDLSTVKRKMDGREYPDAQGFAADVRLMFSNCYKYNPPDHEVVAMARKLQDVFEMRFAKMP

| SMILES | affinity for BRD2-BD1 and BRD4-BD1 within a factor of the affinity for BRD3-BD1 [1] | Percent Control PBRM1(2) (PBRM1(2)) | Percent Control SMARCA4 (SMARCA4) | Percent Control PBRM1(5) (PBRM1(5)) | Kd (BRD2-BD2) | binding to other (non-BET) BD families (in words) [2] | Percent Control EP300 (EP300) | Percent Control BAZ2A (BAZ2A) | Percent Control BRD3(2) (BRD3(2)) | remaining binding at 1 µM (PBRM1(2); read-out: Percent Control PBRM1(2)) | remaining binding at 1 µM (PBRM1(5); read-out: Percent Control PBRM1(5)) | remaining binding at 1 µM (EP300; read-out: Percent Control EP300) | remaining binding at 1 µM (BAZ2A; read-out: Percent Control BAZ2A) | remaining binding at 1 µM (BRD3(2); read-out: Percent Control BRD3(2)) |
| --- | --- | --- | --- | --- | --- | --- | --- | --- | --- | --- | --- | --- | --- | --- |
| CC[C@H](C)[C@@H]1NC(=O)[C@H]([C@@H](C)O)NC(=O)[C@H](CCCCN)NC(=O)[C@H](Cc2c[nH]c3ccccc23)NC(=O)CSC[C@@H](C(N)=O)NC(=O)[C@H](CCC(N)=O)NC(=O)[C@H](CCCCNC(C)=O)NC(=O)[C@H]([C@@H](C)O)NC(=O)[C@H](CCCNC(=N)N)NC(=O)[C@H](Cc2c[nH]c3ccccc23)NC(=O)[C@H]([C@@H](C)O)NC(=O)[C@H](CCCCNC(C)=O)NC(=O)CNC(=O)[C@H](CCCCNC(C)=O)NC1=O [3.1B] ({CH2CO}-WKTIK(Ac)GK(Ac)TWRTK(Ac)QC-NH2; thioether N-14) | 2 to 4 factor | 100% | 77% | 100% | ~300 µM | almost no binding | 100% | 15% | 100% | – | – | – | – | – |
| CC[C@H](C)[C@@H]1NC(=O)[C@H](Cc2c[nH]c3ccccc23)NC(=O)[C@H](Cc2c[nH]c3ccccc23)NC(=O)CSC[C@@H](C(N)=O)NC(=O)CNC(=O)[C@H](CCCCNC(C)=O)NC(=O)[C@H](CCCCN)NC(=O)[C@H](C(C)C)NC(=O)[C@H](CCCCNC(C)=O)NC(=O)[C@@H]2CCCN2C(=O)[C@H]([C@@H](C)CC)NC1=O [3.1C] ({CH2CO}-WWIIPK(Ac)VKK(Ac)GC-NH2; thioether N-11) | 2 to 4 factor | 100% | 87% | 89% | – | almost no binding | 100% | 99% | 13% | – | – | – | – | – |
| CC[C@H](C)[C@H](NC(=O)[C@H](CCCNC(=N)N)NC(=O)[C@H](CCCCNC(C)=O)NC(=O)[C@H](CCCNC(=N)N)NC(=O)[C@H](CC(C)C)NC(=O)[C@@H]1CSCC(=O)N[C@@H](Cc2c[nH]c3ccccc23)C(=O)N[C@@H](CCCCNC(C)=O)C(=O)NCC(=O)N[C@@H](Cc2ccc(O)cc2)C(=O)N[C@@H](CC(C)C)C(=O)N1)C(=O)N[C@@H](CCC(N)=O)C(=O)N[C@@H](CCCNC(=N)N)C(=O)N[C@H](C(=O)N[C@@H](Cc1ccc(O)cc1)C(=O)N[C@@H](CC(N)=O)C(N)=O)[C@@H](C)O [4.2C] ({CH2CO}-WK(Ac)GYLCLRK(Ac)RIQRTYN-NH2; thioether N-6) | – | – | – | – | – | – | – | – | – | 100% | 90% | 100% | 100% | 96% |

Reference: paper PMC7604503, “Cyclic peptides can engage a single binding pocket through highly divergent modes” (Proceedings of the National Academy of Sciences of the …, 2020)
